Experimental data: the NIST ThermoML archive (doi:10.1021/je900193m)

Test: xn = mol fraction of the nth substance listed
Details: 101 kPa, Liquid, holographic inferometry, x1 = 0

COC(=O)OC [dimethyl carbonate] + CCCCCCC
Details | binary diffusion coefficient [m2/s]
278.15 K | 4.93e-09
281.15 K | 4.97e-09
284.15 K | 5.01e-09
287.15 K | 5.07e-09
290.15 K | 5.13e-09
293.15 K | 5.19e-09
296.15 K | 5.25e-09
299.15 K | 5.33e-09
302.15 K | 5.39e-09
305.15 K | 5.48e-09
308.15 K | 5.55e-09
311.15 K | 5.63e-09
314.15 K | 5.71e-09
317.15 K | 5.8e-09
320.15 K | 5.9e-09
323.15 K | 5.99e-09
326.15 K | 6.09e-09
329.15 K | 6.2e-09
332.15 K | 6.29e-09
335.15 K | 6.41e-09
338.15 K | 6.52e-09

CCOC(=O)OCC [diethyl carbonate] + CCCCCCC
Details | binary diffusion coefficient [m2/s]
278.15 K | 3.93e-09
281.15 K | 3.96e-09
284.15 K | 3.99e-09
287.15 K | 4.02e-09
290.15 K | 4.08e-09
293.15 K | 4.14e-09
296.15 K | 4.19e-09
299.15 K | 4.27e-09
302.15 K | 4.32e-09
305.15 K | 4.4e-09
308.15 K | 4.47e-09
311.15 K | 4.54e-09
314.15 K | 4.62e-09
317.15 K | 4.7e-09
320.15 K | 4.8e-09
323.15 K | 4.88e-09
326.15 K | 4.97e-09
329.15 K | 5.07e-09
332.15 K | 5.15e-09
335.15 K | 5.25e-09
338.15 K | 5.35e-09

CCOC(=O)CCCCC(=O)OCC [diethyl hexanedioate] + CCCCCCC
Details | binary diffusion coefficient [m2/s]
278.15 K | 1.93e-09
281.15 K | 1.96e-09
284.15 K | 1.99e-09
287.15 K | 2.02e-09
290.15 K | 2.06e-09
293.15 K | 2.1e-09
296.15 K | 2.15e-09
299.15 K | 2.2e-09
302.15 K | 2.25e-09
305.15 K | 2.31e-09
308.15 K | 2.37e-09
311.15 K | 2.43e-09
314.15 K | 2.49e-09
317.15 K | 2.56e-09
320.15 K | 2.62e-09
323.15 K | 2.7e-09
326.15 K | 2.78e-09
329.15 K | 2.85e-09
332.15 K | 2.92e-09
335.15 K | 3.02e-09
338.15 K | 3.11e-09
